Measured values: paper PMC9964390, “Design, Synthesis and Phenotypic Profiling of Simplified Gedatolisib Analogues” (Pharmaceuticals, 2023)
Like-named read-outs stand apart in the source and are kept apart here.

What was measured:
[1] = tested on: CCRF-CEM; assay: MTT cell viability assay; format: cell-based, human; conditions: for CC50 / Emax: Homo sapiens; for CC50: 95% confidence interval in brackets; for Emax: read-out: Emax (maximum effect at maximum concentration used)
Experimental: (§1) For the evaluation of cellular cytotoxicity in cancer cell lines, the compounds were tested at concentrations ranging from 0.00003 μM to 150 μM. Immortalized cancer cells were selected: PC-3 (PTEN-mutated prostate adenocarcinoma), MCF-7 (PI3KCA-mutated breast carcinoma), K562 (P53-mutated chronic myeloid leukemia), CCRF-CEM (acute lymphoblastic leukemia with mutation in PTEN) and MOLT-4 (acute lymphoblastic leukemia with mutation in PI3KR1/PTEN). Peripheral blood mononuclear cells (PBMCs) were used to determine the cytotoxic selectivity index (SI). All immortalized cells were cultured in RPMI 1640 medium with 10% (v/v) FBS, streptomycin + penicillin, at 37 °C in a humidified incubator containing 5% CO2.
(§2) Cell viability was assessed by the MTT assay. The lines selected for this study were plated according to their respective densities, which ranged from 3 × 10^4 to 4 × 10^4 cells per well. Subsequently, they were treated with test compounds at different concentrations (0.00003 μM to 150 μM), gedatolisib and GSK-1059615.
(§3) After incubation, the plates are centrifuged at 440× g for 10 min. Then, 110 μL of the supernatant was withdrawn and each well received 10μL of the MTT solution. The plate was again incubated in an oven at 37 °C and 5% CO2 for 3 to 4 h. At the end of the incubation time, 100 μL of SDS-HCL detergent was added to solubilize the formazan crystals. The plate was shaken on an automatic overnight shaker and then read at a wavelength of 595 nm on the Molecular Devices Spectramax M5 plate reader.

[2] = tested on: MOLT-4; assay: MTT cell viability assay; format: cell-based, human; conditions: for CC50 / Emax: Homo sapiens; for CC50: 95% confidence interval in brackets; for Emax: read-out: Emax (maximum effect at maximum concentration used); for loss of cytotoxic potency at 48 h versus 72 h (MTT): MOLT-4
Experimental: as §1, §2, §3

[3] = PBMC viability assay (72 h MTT); format: cell-based, human; parameters: Emax at 72 h: dose or concentration left out as unconfirmed; conditions: human; for viability at 72 h, 0.3 µM: 0.3 µM (printed 0.3M); for viability at 72 h, 3 µM: 3 µM (printed 3M)
Experimental: Donor blood was collected and EDTA (ethylenediamine tetraacetic acid) was added to the sterile laminar flow in a 1:20 ratio. In a 15 mL falcon tube, 4.5 mL of Ficoll gradient was added, and then 9 mL of blood was added over the gradient in a 1:2 ratio. The tubes were centrifuged for 40 min at a speed of 750× g with an acceleration of 2 and a brake of 0. The ring of mononuclear cells formed was collected and added to a new tube.
Tubes with PBMCs were centrifuged in an incomplete RPMI medium for 10 min at 580× g with an acceleration of 8 and a brake of 9. The supernatant was discarded, and the cells were resuspended in 1 mL of RPMI medium supplemented with 20% […]. PBMCs were added to 96-well plates at a concentration of 1 × 10^5 cells per well. […]
After incubation, each well received 20 µL of MTT (5 mg/mL), followed by incubation for 4 h in the CO2 oven and centrifugation for 12 min at 1200× g. The supernatant from each well was taken, and 100 µL of isopropyl alcohol was added to solubilize the formazan crystals. The absorbance of the plates was measured at 570 nm in the Flex Station equipment.

[4] = tested on: CCRF-CEM cell line; assay: Muse Annexin V and Dead Cell Kit (phosphatidylserine externalization, membrane integrity); format: cell-based, human; conditions: for reduction of cell viability / total apoptosis: CCRF-CEM, at its CC50 value
Experimental: (§4) For quantitative analysis of live, early and late apoptosis, and cell death on both the CCRF-CEM and MOLT-4 cell lines, treated with gedatolisib and compound 5f (LASSBio-2252), the Muse® Annexin V and Dead Cell Kit was used. Compounds were studied using three concentrations.
(§5) The Annexin V and Dead Cell Kit (catalog n^o. MCH100105, Luminex) contains Annexin V, a phospholipid marker phosphatidylserine, and the molecule 7-AAD, a DNA marker for cells with a ruptured membrane. […] After incubation for 20 min at room temperature, the samples were read on the cytometer. The data with the histograms generated contain information on the percentage of viable cells, in early apoptosis, late apoptosis and dead cells. Samples from three independent experiments were performed in duplicate, and then statistical analysis was performed using the Prism6 statistical program.

[5] = tested on: MOLT-4 cell line; assay: as above; format: cell-based, human
Experimental: as §4, §5

[6] = tested on: CCRF-CEM cell line; assay: Muse Cell Cycle Kit; format: cell-based, human; conditions: 48 h
Experimental: The Guava Muse Luminex® Cell Cycle Kit (catalog n^o MCH100106, Luminex) contains the DNA marker propidium iodide (PI) and RNAse A to avoid nonspecific labelling.
After 48 h of incubation in an incubator at 37 °C with 5% CO2, 1 mL of the MOLT-4 cell solution and 500 µL of the CCRF-CEM cell solution, contained in the wells, were transferred to Eppendorf tubes and centrifuged at 300× g for 5 min. The volumes used ensured that the cell density remained within the recommended range (1 × 10^6 to 4 × 10^6 cells/mL) at the end of the 48 h incubation period.
The supernatant was discarded, and the pellet formed was resuspended in 1 mL of saline PBS, homogenised, and centrifuged at 300× g for 5 min. The formed pellet was resuspended in residual PBS by homogenization. To fix cellular events, 1 mL of ice-cold 70% alcohol was added dropwise into the tubes and vortexed at medium speed. The samples were incubated, before staining, for at least 3 h at −20 °C.
At the end of the incubation time at −20 °C, the samples were centrifuged at 300× g for 5 min, and then the supernatant was discarded and resuspended in 250 µL of PBS. The samples were again centrifuged at 300× g for 5 min and the supernatant discarded, which constituted the washing step. The pellet formed was resuspended in 200 µL of the Guava Muse Luminex® Cell Cycle, and the tubes were incubated for 30 min at room temperature, away from light.
After incubation, the samples were read in Guava Muse Luminex®, and the data with the histograms generated, which contain information on the percentage of the different phases of the cell cycle, were analysed in the statistical program Prism6. This methodology was performed in duplicate of three independent experiments.

[7] = tested on: MCF7; assay: Muse Count & Viability Kit (flow cytometry); parameters: Emax: dose or concentration left out as unconfirmed
[8] = PBMC, read-out: % cell viability
[9] = Homo sapiens, CCRF-CEM 48 h, read-out: % of cells, Viable
[10] = peripheral blood mononuclear cells (PBMCs), PBMC, read-out: % cell viability

| Structure (SMILES) | loss of cytotoxic potency at 48 h versus 72 h (MTT) [1] | CC50 ([1]; 48 h MTT) [µM] | Emax ([1]; 48 h MTT) [%] | CC50 ([1]; 72 h MTT) [µM] | Emax ([1]; 72 h MTT) [%] | CC50 ([2]; MOLT-4, 48 h MTT) [µM] | Emax ([2]; MOLT-4, 48 h MTT) [%] | CC50 ([2]; MOLT-4, 72 h MTT) [µM] | Emax ([2]; MOLT-4, 72 h MTT) [%] | loss of cytotoxic potency at 48 h versus 72 h (MTT) [2] | reduction of cell viability [4] | total apoptosis [4] | viability at 50 µM [4, 9] [%] | also measured |
| --- | --- | --- | --- | --- | --- | --- | --- | --- | --- | --- | --- | --- | --- | --- |
| c1ccc(N2CCN(c3nc(N4CCCNCC4)nc(N4CCOCC4)n3)CC2)cc1 [5f, 4-(4-(1,4-Diazepan-1-yl)-6-(4-phenylpiperazin-1-yl)-1,3,5-triazin-2-yl)morpholine] | less than 2 fold | 11.1 | 69 | 6.25 | 93 | 36.5 | 80 | 9.76 | 93 | less than 4 fold | about 50% | about 50% | 47 | Emax at 72 h [3]: 26%; viability at 72 h, 0.03 µM ([3]; PBMC, 0.03 µM (printed 0.03M), read-out: % cell viability): 92%; viability at 72 h, 0.3 µM [3, 8]: 88%; viability at 72 h, 3 µM [3, 8]: 91%; viability at 72 h, 30 µM ([3]; PBMC, 30 µM (printed 30M), read-out: % cell viability): 75%; viability at 72 h, 100 µM ([3]; PBMC, 100 µM (printed 100M), read-out: % cell viability): 73%; viability at 5 µM ([4]; Homo sapiens, CCRF-CEM 48 h, 5 μM, read-out: % of cells, Viable): 87%; viability at 6 µM ([5]; Homo sapiens, MOLT-4 48 h, 6 μM, read-out: % de células, Viable): 86%; viability at 60 µM ([5]; Homo sapiens, MOLT-4 48 h, 60 μM, read-out: % de células, Viable): 20%; reduction of the number of viable cells ([5]; MOLT-4, tested at 10-fold concentration): 80%; reduction of the number of viable cells ([5]; MOLT-4, tested at its CC50 value): 14%; action on the cell cycle ([6]; its CC50 value (50 µM)): cell cycle arrest in G0/G1; cytotoxic activity ([7]; MCF-7, Muse Count & Viability Kit, 72 h): inactive |
| CN(C)C1CCN(C(=O)c2ccc(NC(=O)Nc3ccc(-c4nc(N5CCOCC5)nc(N5CCOCC5)n4)cc3)cc2)CC1 [Gedatolisib, gedatolisib] | ~10 fold | 0.14 | 94 | 0.03 | 90 | 0.15 | 92 | 0.02 | 93 | ~10 fold | about 50% | about 50% | 7 | viability at 72 h, 0.0003 µM ([3]; peripheral blood mononuclear cells (PBMCs), PBMC, 0.0003 µM (printed 0.0003M), read-out: % cell viability): 89%; viability at 72 h, 0.003 µM ([3]; peripheral blood mononuclear cells (PBMCs), PBMC, 0.003 µM (printed 0.003M), read-out: % cell viability): 85%; viability at 72 h, 0.3 µM [3, 10]: 80%; viability at 72 h, 3 µM [3, 10]: 85%; viability at 72 h, 50 µM ([3]; peripheral blood mononuclear cells (PBMCs), PBMC, 50 µM (printed 50M), read-out: % cell viability): 67%; viability at 0.6 µM ([4]; Homo sapiens, CCRF-CEM 48 h, 0.6 μM, read-out: % of cells, Viable): 68%; viability at 6 µM ([4]; Homo sapiens, CCRF-CEM 48 h, 6 μM, read-out: % of cells, Viable): 55%; viability at 0.15 µM ([5]; Homo sapiens, MOLT-4 48 h, 0.15 μM, read-out: % de células, Viable): 10%; viability at 1.5 µM ([5]; Homo sapiens, MOLT-4 48 h, 1.5 μM, read-out: % de células, Viable): 11%; viability at 30 µM ([5]; Homo sapiens, MOLT-4 48 h, 30 μM, read-out: % de células, Viable): 4%; reduction of cell viability ([5]; MOLT-4, concentration 10 times lower than its CC50): 90%; action on the cell cycle ([6]; both concentrations tested (0.6 µM and 6 µM)): cell cycle arrest in the G0/G1 phase; Emax ([7]; Homo sapiens, MCF7, 72 h, read-out: maximum effect (Emax)): 54% |
